Reference: US6407103B2, “Indeno [1,2-c] pyrazol-4-ones and their uses” (Bristol-Myers Squibb Pharma Company, priority 1998, dated 2002)
Counter-ions that a name gives are not always drawn.

Compound | melting point
CC(C)(C)OC(=O)N1CCCC(C(=O)N2CCC(c3[nH]nc4c3C(=O)c3c(NC(=O)NN5CCOCC5)cccc3-4)CC2)C1 (stereo not shown) [Example CCLXXXIX, 3-(1(1-(t-butoxycarbonyl)piperidin-3-ylcarbonyl)piperidin-4-yl)-5-(morpholinocarbamoylamino)indeno[1,2-c]pyrazol-4-one] | 196 °C
COc1ccccc1-c1[nH]nc2c1C(=O)c1c(NC(C)=O)cccc1-2 [Example XV, 3-(2-methoxyphenyl)-5-(acetamido)indeno[1,2-c]pyrazol-4-one] | 276 °C
COC[C@H]1CCCN1NC(=O)c1ccc(-c2[nH]nc3c2C(=O)c2c(NC(=O)NN4CCOCC4)cccc2-3)s1 (as salt: TFA) [Example CLXXXVIII, 3-(5-(2(R)-(methoxymethyl)pyrrolidinoaminocarbonyl)-2-thienyl)-5-(morpholinocarbamoylamino)indeno[1,2-c]pyrazol-4-one] | 266 °C
O=C(Nc1cccc2c1C(=O)c1c-2n[nH]c1-c1ccc(N2CCNCC2)cc1)NN1CCC[C@H]1CO (as salt: TFA) [Example CCXXXIV, 3-(4-piperazinophenyl)-5-((2(S)-(hydroxymethyl)pyrrolidino)carbamoylamino)indeno[1,2-c]pyrazol-4-one] | 190 °C
O=C(Nc1cccc2c1C(=O)c1c-2n[nH]c1-c1ccc(C(=O)NN2CCCC2)s1)NN1CCOCC1 (as salt: TFA) [Example CXLVI, 3-(5-pyrrolidinoaminocarbonyl-2-thienyl)-5-(morpholinocarbamoylamino)indeno [1,2-c]pyrazol-4-one] | 213 °C
CCc1[nH]nc2c1C(=O)c1c(NC(=O)CN3CCC(CN)CC3)cccc1-2 [Example CXVII, 3-(ethyl)-5-(4-(aminomethyl)piperidinoacetamido)indeno [1,2-c]pyrazol-4-one] | 174 °C
CNC(=O)Nc1cccc2c1C(=O)c1c-2n[nH]c1-c1ccc(OC)cc1 [Example LXV, 3-(4-methoxyphenyl)-5-((methylcarbamoyl)amino)indeno[1,2-c]pyrazol-4-one] | > 300 °C
CN1C[C@@H]2C[C@H]1CN2C(=O)N1CCC(c2[nH]nc3c2C(=O)c2c(NC(=O)NN4CCOCC4)cccc2-3)CC1 (as salt: TFA) [Example CCLXXIII, 3-(1-(((1S,4S)-(+)-5-methyl-2,5-diazabicyclo[2.2.1]hept-2-yl)carbonyl)piperidin-4-yl)-5-(morpholinocarbamoylamino)indeno[1,2-c]pyrazol-4-one] | 225 °C
CCN(CC)C1CCN(c2ccc(-c3[nH]nc4c3C(=O)c3c(NC(=O)NN5CCOCC5)cccc3-4)cc2)CC1 (as salt: TFA) [Example CCLII, 3-(4-(4-(N,N-diethylamino)piperidino)phenyl)-5-(morpholinocarbamoylamino)indeno[1,2-c]pyrazol-4-one] | 251 °C
CCOC(=O)c1ccc(-c2[nH]nc3c2C(=O)c2c(NC(N)=O)cccc2-3)s1 [Example XCIX, 3-(5-carboethoxy-2-thienyl)-5-(carbamoylamino)indeno[1,2-c]pyrazol-4-one] | > 280 °C
CC(C)(C)OC(=O)N1CCN(c2ccc(-c3[nH]nc4c3C(=O)c3c(NC(=O)NN5CCOCC5)cccc3-4)cc2)CC1 [Example CCX, 3-(4-(4-t-butoxycarbonylpiperazino)phenyl)-5-(morpholinocarbamoylamino)indeno[1,2-c]pyrazol-4-one] | 242 °C
Cc1ccc(-c2[nH]nc3c2C(=O)c2c(NC(N)=O)cccc2-3)s1 [Example XCVIII, 3-(5-methyl-2-thienyl)-5-(carbamoylamino)indeno[1,2-c]pyrazol-4-one] | > 280 °C
NC(=O)Nc1cccc2c1C(=O)c1c-2n[nH]c1-c1ccc(N2CCNCC2)cc1 (as salt: TFA) [Example CCXII, 3-(4-piperazinophenyl)-5-(carbamoylamino)indeno[1,2-c]pyrazol-4-one] | 257 °C
CC(C)(C)OC(=O)N1CCN(C(=O)N2CCC(c3[nH]nc4c3C(=O)c3c(NC(=O)NN5CCOCC5)cccc3-4)CC2)CC1 (as salt: TFA) [Example CCLXXI, 3-(1-(4-(t-butoxycarbonyl)piperazinocarbonyl)piperidin-4-yl)-5-(morpholinocarbamoylamino)indeno[1,2-c]pyrazol-4-one] | 231 °C
O=C(Nc1cccc2c1C(=O)c1c-2n[nH]c1-c1ccc(C(=O)N2CCNCC2)s1)NN1CCOCC1 (as salt: TFA) [Example CXLIX, 3-(5-piperazinocarbonyl-2-thienyl)-5-(morpholinocarbamoylamino)indeno [1,2-c]pyrazol-4-one] | 241 °C
COc1ccc(-c2[nH]nc3c2C(=O)c2c(NC(=O)Cc4ccccc4Cl)cccc2-3)cc1 [Example XXII, 3-(4-methoxyphenyl)-5-((2-chlorophenyl)acetamido)indeno[1,2-c]pyrazol-4-one] | 300 °C
CCN(CC)c1ccc(NC(=O)c2ccc(-c3[nH]nc4c3C(=O)c3c(NC(=O)NN5CCOCC5)cccc3-4)s2)cc1 (as salt: TFA) [Example CXCVIII, 3-(5-(4-(diethylamino)phenylaminocarbonyl)-2-thienyl)-5-(morpholinocarbamoylamino)indeno[1,2-c]pyrazol-4-one] | 198 °C

The remaining lines, values ahead:

melting point | Compound
> 300 °C | COc1ccc(-c2[nH]nc3c2C(=O)c2c(NC(=O)CN4CCN(c5ccccn5)CC4)cccc2-3)cc1 [Example LXX, 3-(4-methoxyphenyl)-5-(4-(2-pyridyl)piperazinoacetamido)indeno[1,2-c]pyrazol-4-one]
> 300 °C | CN1CCN(CC(=O)Nc2cccc3c2C(=O)c2c-3n[nH]c2-c2ccc(N(C)C)cc2)CC1 [Example LXXVIII, 3-(4-(dimethylamino)phenyl)-5-((4-methylpiperazino)acetamido)indeno[1,2-c]pyrazol-4-one]
248 °C | O=C(Nc1cccc2c1C(=O)c1c-2n[nH]c1[C@H]1CC[C@H](C(=O)N2CCNCC2)CC1)NN1CCOCC1 (as salt: TFA) [Example CCCIII, 3-(trans-4-(piperazinocarbonyl)cyclohexyl)-5-(morpholinocarbamoylamino)indeno[1,2-c]pyrazol-4-one]
295 °C | COc1ccc(-c2[nH]nc3c2C(=O)c2c(NC(=O)CN4CCOCC4)cccc2-3)cc1 [Example XXXIII, 3-(4-methoxyphenyl)-5-(morpholinoacetamido)indeno[1,2-c]pyrazol-4-one]
> 300 °C | CN(C)CC1CCCCN1C(=O)c1ccc(-c2[nH]nc3c2C(=O)c2c(NC(=O)NN4CCOCC4)cccc2-3)s1 (stereo not shown) (as salt: TFA) [Example CLXXII, 3-(5-(2-(N,N-dimethylaminomethyl)piperidinocarbonyl)-2-thienyl)-5-(morpholinocarbamoylamino)indeno[1,2-c]pyrazol-4-one]
181 °C | COC[C@H]1CCCN1NC(=O)Nc1cccc2c1C(=O)c1c-2n[nH]c1-c1ccc(C(=O)N2CCN(C)CC2)s1 (as salt: TFA) [Example CCIII, 3-(5-(4-methylpiperazinocarbonyl)-2-thienyl)-5-(2(R)-(methoxymethyl)pyrrolidinocarbamoylamino)indeno[1,2-c]pyrazol-4-one]
297 °C | COc1ccc(-c2[nH]nc3c2C(=O)c2c(NC(=O)C4CCC4)cccc2-3)cc1 [Example VII, 3-(4-methoxyphenyl)-5-(cyclobutanecarboxamido)indeno[1,2-c]pyrazol-4-one]
264 °C | CC(=O)N[C@H]1CCN(C(=O)c2ccc(-c3[nH]nc4c3C(=O)c3c(NC(=O)NN5CCOCC5)cccc3-4)s2)C1 (as salt: TFA) [Example CLXXVII, 3-(5-(3(S)-acetamidopyrrolidinocarbonyl)-2-thienyl)-5-(morpholinocarbamoylamino)indeno[1,2-c]pyrazol-4-one]
258 °C | O=C(CN1CCOCC1)Nc1cccc2c1C(=O)c1c-2n[nH]c1-c1ccc(N2CCOCC2)cc1 [Example LXXXI, 3-(4-morpholinophenyl)-5-(morpholinoacetamido)indeno[1,2-c]pyrazol-4-one]
> 250 °C | CC(C)c1[nH]nc2c1C(=O)c1c(NC(N)=O)cccc1-2 [Example XCIII, 3-(i-propyl)-5-(carbamoylamino)indeno[1,2-c]pyrazol-4-one]
> 300 °C | COc1ccc(-c2[nH]nc3c2C(=O)c2c(NC(=O)CN4CCN(CCN)CC4)cccc2-3)cc1 [Example LXXI, 3-(4-methoxyphenyl)-5-(4-(aminoethyl)piperazinoacetamido)indeno[1,2-c]pyrazol-4-one]
189 °C | O=C(Nc1cccc2c1C(=O)c1c-2n[nH]c1-c1ccc(C(=O)NN2CCCCC2)s1)NN1CCOCC1 (as salt: TFA) [Example CXLVII, 3-(5-piperidinoaminocarbonyl-2-thienyl)-5-(morpholinocarbamoylamino)indeno [1,2-c]pyrazol-4-one]
280 °C | COc1ccc(-c2[nH]nc3c2C(=O)c2c(NC(=O)Cc4ccccc4)cccc2-3)cc1 [Example VIII, 3-(4-methoxyphenyl)-5-(phenylacetamido)indeno[1,2-c]pyrazol-4-one]
253 °C | CC(C)N1CCN(c2ccc(-c3[nH]nc4c3C(=O)c3c(NC(=O)NN5CCOCC5)cccc3-4)cc2)CC1 (as salt: TFA) [Example CCXX, 3-(4-(4-isopropylpiperazino)phenyl)-5-(morpholinocarbamoylamino)indeno[1,2-c]pyrazol-4-one]
282 °C | CCCC(=O)Nc1cccc2c1C(=O)c1c-2n[nH]c1-c1ccc(OC)cc1 [Example IX, 3-(4-methoxyphenyl)-5-(butanamido)indeno[1,2-c]pyrazol-4-one]
264 °C | O=C(Nc1cccc2c1C(=O)c1c-2n[nH]c1[C@H]1CC[C@H](C(=O)O)CC1)NN1CCOCC1 (as salt: TFA) [Example CCC, 3-(trans-4-carboxylcyclohexyl)-5-(morpholinocarbamoylamino)indeno[1,2-c]pyrazol-4-one]
258 °C | CN(C)C1CCN(c2ccc(-c3[nH]nc4c3C(=O)c3c(NC(=O)NN5CCOCC5)cccc3-4)cc2)CC1 (as salt: TFA) [Example CCXLVIII, 3-(4-(4-(N,N-dimethylamino)piperidino)phenyl)-5-(morpholinocarbamoylamino)indeno[1,2-c]pyrazol-4-one]
